One test has as its system COMBE. The test is described as follows: Post-emergence application in field trials (Examples 2 and 3). The format is in vivo, Commelina benghalensis. As to conditions: 21 DAT, growth stage 11-14, height 2-10 cm, 0.5% MSO. The procedure: (§1) In the examples below, using the method of S. R. Colby (1967) “Calculating synergistic and antagonistic responses of herbicide combinations”, Weeds 15, p. 22ff., the value E, which is expected if the activity of the individual active compounds is only additive, was calculated.
(§2) [formula] • where • X=percent activity using active herbicide A at an application rate a; • Y=percent activity using active saflufenacil at an application rate b; • E=expected activity (in %) by A+B at application rates a+b.
(§3) If the value found experimentally is higher than the value E calculated according to Colby, a synergistic effect is present.
(§4) On field test sites, natural weed infestation or seeded weeds were treated post-emergence of the weeds.
(§5) For the post emergence treatment, the weedy plants were treated as indicated below. The herbicidal compositions were, together with the adjuvant(s) as indicated, suspended or emulsified in water (200 l/ha unless indicated otherwise) as distribution medium and sprayed with commercial flat fan nozzles.
(§6) In the following experiments, the herbicidal activity for the individual herbicidal compositions (solo and mixture applications) was assessed the indicated days after treatment (DAT). The assessments for the damage on undesired weeds caused by the composition was carried out using a scale from 0 to 100%, compared to the untreated control plants. […]

Another test deals with AMATA. The test is described as follows: Post-emergence application in greenhouse trials. The format is in vivo, Amaranthus tamariscinus. Conditions: 20 DAT, growth stage 14, 1% MSO. On the procedure:
as §1, §2, §3
The culture containers used were plastic pots containing loamy sand with approximately 3.0% of humus as substrate. The seeds of the test plants were sown separately for each species.
For the post-emergence treatment, the test plants were grown to a plant height of from 3 to 15 cm, depending on the plant habit, and only then treated with the active compounds which had been suspended or emulsified in water. To this end, the test plants were either sown directly, and grown in the same containers, or they were first grown separately as seedlings and transplanted into the test containers a few days prior to treatment.
Depending on the species, the plants were kept at 10-25° C. and 20-35° C., respectively.
The test period extended over 2 to 4 weeks. During this time, the plants were tended and their response to the individual treatments was evaluated.
Evaluation was carried out using a scale from 0 to 100. 100 means no emergence of the plants, or complete destruction of at least the above-ground parts, and 0 means no damage or normal course of growth. A good herbicidal activity is given at values of at least 70, and very good herbicidal activity is given at values of at least 85.
Unless indicated otherwise, herbicide A and saflufenacil were formulated (50 g/I) and applied with addition of 1% MSO (methylated seed oil) as adjuvant. In the greenhouse trials, the solvent used was water (200 I/ha).

A further test has as its system IPOTR. The test is described as follows: Post-emergence application in field trials (Examples 2 and 3). As to conditions: growth stage 40-41, height 65-75 cm, 21 DAT, 1% Dash ® HC. The test is classed as in vivo, Ipomoea triloba. On the procedure:
as §1, §2, §3, §4, §5, §6

The next test concerns SETVI. The description is as above. The format is in vivo, Setaria viridis. On the procedure: as §1, §2, §3, §4, §5
In the following experiments, the herbicidal activity for the individual herbicidal compositions (solo and mixture applications) was assessed the indicated days after treatment (DAT). The assessments for the damage on undesired weeds caused by the composition was carried out using a scale from 0 to 100%, compared to the untreated control plants. Here, 0 means no damage and 100 means complete destruction of the plants.
For the post emergence treatment, the weedy plants were treated as indicated below. The herbicidal compositions were, together with the adjuvant(s) as indicated, suspended or emulsified in water (200 I/ha unless indicated otherwise) as distribution medium and sprayed with commercial flat fan nozzles.

Structures are written as SMILES.

For the molecule `CCOC(=O)COc1ccccc1Oc1nc(-n2c(=O)cc(C(F)(F)F)n(C)c2=O)c(F)cc1Cl` [A-1, ethyl 2-[2-[[3-chloro-5-fluoro-6-[3-methyl-2,6-dioxo-4-(trifluoromethyl)pyrimidin-1-yl]-2-pyridyl]oxy]phenoxy]acetate], the “% Herbicidal activity” value with COMBE (A-1 50 g ai/ha) was 94%; in the test with AMATA (A-1 0.2 g ai/ha) it was 75%; with AMATA (A-1 0.3 g ai/ha), 75%; in the test with IPOTR (A-1 solo 30 g ai/ha), 57%; in the test on SETVI (A-1 12.5 g ai/ha, 19 DAT, growth stage 13-19, height 2.5-10 cm, field, 1% v/v MSO and 1% w/v ammoniumsulfate), 87%; in the test with SETVI (A-1 25 g ai/ha, 19 DAT, growth stage 13-19, height 2.5-10 cm, field, 1% v/v MSO and 1% w/v ammoniumsulfate), 96%. Also, in the test on SETVI (SETVI, height 50-61 cm, A-1 solo 25 g ai/ha, 42 DAT, 1% v/v MSO and 2.5% AMSOL ®), the “% Herbicidal activity” value is 57%.
On to `CC(C)N(C)S(=O)(=O)NC(=O)c1cc(-n2c(=O)cc(C(F)(F)F)n(C)c2=O)c(F)cc1Cl` [B-1, saflufenacil], for which the “% Herbicidal activity” value was found to be 5% with COMBE (B-1 25 g ai/ha); 70% in the test on AMATA (B-1 0.2 g ai/ha); 85% in the test with AMATA (B-1 0.3 g ai/ha); 43% in the test with IPOTR (B-1 solo 25 g ai/ha); 22% in the test on SETVI (B-1 25 g ai/ha, 19 DAT, growth stage 13-19, height 2.5-10 cm, field, 1% v/v MSO and 1% w/v ammoniumsulfate); 33% with SETVI (SETVI, height 50-61 cm, B-1 solo 25 g ai/ha, 42 DAT, 1% v/v MSO and 2.5% AMSOL ®).

The values are drawn from patent publication US20250040548A1, “Herbicidal compositions comprising saflufenacil” (BASF SF, priority 2023, published 2025).
